Results as given in US20250049777A1, “PHARMACEUTICALLY ACCEPTABLE SALT AND CRYSTALLINE FORM OF GLP-1 RECEPTOR AGONIST AND PREPARATION METHOD THEREFOR” (JIANGSU HENGRUI PHARMACEUTICALS CO., LTD., priority 2021, published 2025).
Counter-ions that a name gives are not always drawn. Like-named read-outs stand apart in the source and are kept apart here.

Legend:
[1] = format: physicochemical
Protocol: A salt-type sample was sealed with an aluminum foil bag and placed under the conditions of 25° C./60% RH and 40° C./75% RH, respectively, to investigate the stability.

[2] = Stability of crystal forms of salts under influencing factors (illumination, high temperature, high humidity); format: physicochemical
Source text: The sampling and investigation period was 30 days.

[3] = Hygroscopicity of crystal forms of salts (DVS, 25° C.); format: physicochemical; conditions: for Crystal form after DVS: 0% to 95% RH
Source text: According to the description of hygroscopic characteristics and the definition of hygroscopic weight gain in “9103 Guidelines for Hygroscopicity of Pharmaceuticals”, Chinese Pharmacopoeia, Volume IV, 2015 edition, the following are defined: • deliquescent: absorbing enough water to form a liquid; • extremely hygroscopic: having a hygroscopic weight gain of not less than 15%; • hygroscopic: having a hygroscopic weight gain of less than 15% and not less than 2%; • slightly hygroscopic: having a hygroscopic weight gain of less than 2% and not less than 0.2%; and • no or almost no hygroscopicity: having a hygroscopic weight gain of less than 0.2%.
Surface Measurement Systems intrinsic DVS was used at 25° C. The observed humidity ranged from 0% to 95%. The step was 10%. The criterion was that the mass change dM/dT for each step was less than 0.002%. TMAX was 360 min. Two cycles were carried out.

[4] = 25° C./60% RH, sealed aluminum foil bag
[5] = 40° C./75% RH, sealed aluminum foil bag
[6] = Illumination (4500 Lux), 7 days, open
[7] = Illumination (4500 Lux), 14 days, open
[8] = Illumination (4500 Lux), 30 days, open
[9] = Illumination (4500 Lux), 5 days, open
[10] = Illumination (4500 Lux), 10 days, open

## O=C(O)c1ccc2nc(CN3CCC(c4cccc5c4O[C@@H](c4ccc(Cl)cc4F)CO5)CC3)n(C[C@@H]3CCO3)c2c1 [Crystal form E of tromethamine salt, 2-((4-((S)-3-(4-chloro-2-fluorophenyl)-2,3-dihydrobenzo[b][1,4]dioxan-5-yl)piperidin-1-yl)methyl)-1-(((S)-oxetan-2-yl)methyl)-1H-benzo[d]imidazole-6-carboxylic acid]
[1]
  physical and chemical stability: good physical and chemical stability
[1]; 25° C./60% RH, 1 month, sealed aluminum foil bag
  % Purity: 98.2%
[1]; 25° C./60% RH, 2 months, sealed aluminum foil bag
  % Purity: 98.3%
[1]; 25° C./60% RH, 3 months, sealed aluminum foil bag
  % Purity: 98.1%
[1]; [4]
  Crystal form: Unchanged
[1]; 40° C./75% RH, 1 month, sealed aluminum foil bag
  % Purity: 97.7%
[1]; 40° C./75% RH, 2 months, sealed aluminum foil bag
  % Purity: 97.7%
[1]; 40° C./75% RH, 3 months, sealed aluminum foil bag
  % Purity: 97.2%
[1]; [5]
  Crystal form: Unchanged
[1]; Initial condition
  % Purity: 98.3%
[2]
  chemical stability: slightly poor chemical stability
  physical stability: slightly poor physical stability
[2]; 40° C., 7 days, open
  % Purity: 96.0%
  Crystal form: Unchanged
[2]; 40° C., 14 days, open
  % Purity: 93.6%
  Crystal form: Unchanged
[2]; 40° C., 30 days, open
  % Purity: 85.0%
  Crystal form: Unchanged
[2]; 60° C., 7 days, open
  % Purity: 94.8%
  Crystal form: Unchanged
[2]; 60° C., 30 days, open
  % Purity: 81.8%
  Crystal form: Amorphous form
[2]; 75% RH, 7 days, open
  % Purity: 98.3%
  Crystal form: Unchanged
[2]; 75% RH, 14 days, open
  % Purity: 98.4%
  Crystal form: Unchanged
[2]; 75% RH, 30 days, open
  % Purity: 98.3%
  Crystal form: Unchanged
[2]; 92.5% RH, 7 days, open
  % Purity: 98.2%
  Crystal form: Unchanged
[2]; 92.5% RH, 14 days, open
  % Purity: 98.2%
  Crystal form: Unchanged
[2]; 92.5% RH, 30 days, open
  % Purity: 98.1%
  Crystal form: Amorphous form
[2]; [6]
  % Purity: 98.1%
  Crystal form: Unchanged
[2]; [7]
  % Purity: 97.9%
  Crystal form: Unchanged
[2]; [8]
  % Purity: 95.5%
  Crystal form: Unchanged
[2]; Initial condition, 0 days
  % Purity: 98.3%
[3]
  hygroscopic weight gain 0.0% RH to 80.0% RH: 7.27%
  Crystal form after DVS: Unchanged

## O=C(O)c1ccc2nc(CN3CCC(c4cccc5c4O[C@@H](c4ccc(Cl)cc4F)CO5)CC3)n(C[C@@H]3CCO3)c2c1 [Crystal form I of tartrate salt, 2-((4-((S)-3-(4-chloro-2-fluorophenyl)-2,3-dihydrobenzo[b][1,4]dioxan-5-yl)piperidin-1-yl)methyl)-1-(((S)-oxetan-2-yl)methyl)-1H-benzo[d]imidazole-6-carboxylic acid]
[1]
  physical and chemical stability: good physical and chemical stability
[1]; [4]
  Crystal form: Unchanged
[1]; [5]
  Crystal form: Unchanged
[1]; Initial condition
  % Purity: 98.8%
[2]; 40° C., 5 days, open
  % Purity: 98.4%
  Crystal form: Unchanged
[2]; 40° C., 10 days, open
  % Purity: 98.1%
  Crystal form: Unchanged
[2]; 40° C., 30 days, open
  % Purity: 97.6%
  Crystal form: Unchanged
[2]; 60° C., 5 days, open
  % Purity: 97.9%
  Crystal form: Unchanged
[2]; 60° C., 10 days, open
  % Purity: 97.2%
  Crystal form: Unchanged
[2]; 60° C., 30 days, open
  % Purity: 96.4%
  Crystal form: Unchanged
[2]; 75% RH, 5 days, open
  % Purity: 98.6%
  Crystal form: Unchanged
[2]; 75% RH, 10 days, open
  % Purity: 98.6%
  Crystal form: Unchanged
[2]; 75% RH, 30 days, open
  % Purity: 98.4%
  Crystal form: Unchanged
[2]; 92.5% RH, 5 days, open
  % Purity: 98.7%
  Crystal form: Unchanged
[2]; 92.5% RH, 10 days, open
  % Purity: 98.6%
  Crystal form: Unchanged
[2]; 92.5% RH, 30 days, open
  % Purity: 98.3%
  Crystal form: Unchanged
[2]; [9]
  % Purity: 98.7%
  Crystal form: Unchanged
[2]; [10]
  % Purity: 98.6%
  Crystal form: Unchanged
[2]; [8]
  % Purity: 98.3%
  Crystal form: Unchanged
[2]; Initial condition, 0 days
  % Purity: 98.8%
[3]
  hygroscopic weight gain 0.0% RH to 80.0% RH: 1.44%
  Crystal form after DVS: Unchanged
